Patent publication US20190321431A1, “PREPARATION AND APPLICATION OF Syzygium zeylanicum L. EXTRACT” (Tamkang University, priority 2018, published 2019)

Assays:
[1] = molecular target: S. cerevisiae alpha-glucosidase (Saccharomyces cerevisiae, UniProt P53341); format: biochemical
Description: (§1) The test steps of this example are as follows. Firstly, the Syzygium zeylanicum L. extract was mixed a buffer (potassium phosphate buffer) with 1:9 volume to produce a Syzygium zeylanicum L. extract solution. The Syzygium zeylanicum L. extract solution and alpha-glucosidase (enzyme) were mixed into the buffer at a volume ratio of 1:1. In this example, 15 μl extract solution and the enzyme were separately mixed into 100 μl buffer at 37° C. for 20 minutes. Then, 50 μl matrix p-nitrophenyl glucopyranoside (pNPG) was added at 37° C. for 40 minutes; then 100 μl, 1 mol/L of Na2CO3 was added to stop the reaction. Finally, the absorbance of OD 410 nm was measured, and calculated the inhibition activity of alpha-glucosidase. The above experimental steps was the subsequent enzyme activity test method of the present invention, and only different conditions, such as extraction solvent, reaction temperature or pH were changed.
(§2) The enzyme activity inhibition test of Example 2 was used in this example. […] The enzymes were S. cerevisiae alpha-glucosidase, rat alpha-glucosidase, B. stearothermophilus alpha-glucoside), porcine pancreatic alpha-amylase, B. subtilis alpha-amylase, and human saliva alpha-amylase.

[2] = molecular target: T1, Porcine pancreatic alpha-amylase (Sus scrofa, UniProt P00690); experiment: Enzyme activity inhibition test, porcine pancreatic alpha-amylase; format: biochemical
T1 sequence (P00690 16-511): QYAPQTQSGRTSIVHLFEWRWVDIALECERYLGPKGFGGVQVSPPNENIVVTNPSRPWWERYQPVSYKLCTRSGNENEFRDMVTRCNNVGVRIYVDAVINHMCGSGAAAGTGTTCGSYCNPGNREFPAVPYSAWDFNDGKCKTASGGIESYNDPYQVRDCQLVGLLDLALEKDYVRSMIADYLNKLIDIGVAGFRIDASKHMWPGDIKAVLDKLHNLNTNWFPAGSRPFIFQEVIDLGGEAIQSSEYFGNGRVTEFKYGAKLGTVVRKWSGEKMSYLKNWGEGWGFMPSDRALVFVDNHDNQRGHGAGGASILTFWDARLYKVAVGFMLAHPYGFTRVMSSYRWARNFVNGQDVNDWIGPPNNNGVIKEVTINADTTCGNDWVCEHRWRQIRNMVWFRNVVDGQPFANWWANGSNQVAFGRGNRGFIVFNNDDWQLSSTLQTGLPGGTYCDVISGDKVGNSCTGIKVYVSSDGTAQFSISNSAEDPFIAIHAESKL
Description: as §1, §2

Sequence of S. cerevisiae alpha-glucosidase (P53341 whole entry): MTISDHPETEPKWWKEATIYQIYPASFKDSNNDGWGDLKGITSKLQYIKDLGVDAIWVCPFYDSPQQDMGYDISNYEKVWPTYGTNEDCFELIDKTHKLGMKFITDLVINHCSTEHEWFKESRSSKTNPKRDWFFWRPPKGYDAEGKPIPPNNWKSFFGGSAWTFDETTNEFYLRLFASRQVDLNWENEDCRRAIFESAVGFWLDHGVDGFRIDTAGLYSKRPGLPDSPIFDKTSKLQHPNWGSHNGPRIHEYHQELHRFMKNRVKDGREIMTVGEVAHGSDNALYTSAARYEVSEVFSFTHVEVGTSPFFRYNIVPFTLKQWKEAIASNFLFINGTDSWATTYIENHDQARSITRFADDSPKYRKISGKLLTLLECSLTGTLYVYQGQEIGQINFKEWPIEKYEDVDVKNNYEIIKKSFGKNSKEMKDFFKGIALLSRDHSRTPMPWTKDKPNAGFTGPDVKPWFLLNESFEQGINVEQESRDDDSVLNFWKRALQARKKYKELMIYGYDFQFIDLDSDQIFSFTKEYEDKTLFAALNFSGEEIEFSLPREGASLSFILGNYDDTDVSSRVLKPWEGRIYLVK

For `C[C@H]1O[C@H](O[C@H]2[C@H](O)[C@@H](O)[C@@H](O[C@H]3[C@H](O)[C@@H](O)C(O)O[C@@H]3CO)O[C@@H]2CO)[C@H](O)[C@@H](O)[C@@H]1N[C@H]1C=C(CO)[C@@H](O)[C@H](O)[C@H]1O` (some centres unmarked) [Acarbose], the “Maximum Inhibitory Activity” value [1] was 64 ± 2.3% and the “Maximum Inhibitory Activity” value [2] was 91 ± 2.5%.
